Like-named read-outs stand apart in the source and are kept apart here.
Legend:
in vitro = in vitro ADME
MIF = target: T1, MIF (Homo sapiens, UniProt P14174); assay: Drug resin affinity chromatography (DRAC), MIF; assay type: binding; conditions: SH-SY5Y-tau-P301S lysates
T1 construct: endogenous in cells; host or cells: SH-SY5Y-tau-P301S cell lysate
T1 sequence (P14174 2-115): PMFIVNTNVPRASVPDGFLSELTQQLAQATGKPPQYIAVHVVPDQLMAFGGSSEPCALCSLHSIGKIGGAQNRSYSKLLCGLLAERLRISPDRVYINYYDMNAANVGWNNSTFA
Protocol: (§1) For drug resin affinity chromatography (DRAC), supernatant of cell lysates or brain extracts were supplemented with 1 mM of ribonucleoside triphosphates (ATP, GTP, CTP, UTP; NEB), 10 mM creatine phosphate (Sigma) and 10 μL/mL of a 5 mg/mL stock solution of creatine kinase (Sigma). The samples were then loaded onto 20 μL of compound-coupled resin that were equilibrated with PBB-buffer (plus supplements). After one hour of incubation at 26°C, the beads were washed with PBB (100x bed volume). Bound proteins were then eluted either with 200 μM PAV-645 (pig brain) or 100 μM free compound (human brain samples; cell lysates) in the same buffer used as competitor solution or for stripping 1% SDS or 8M urea (cell lysates) for 1h. All elutions were kept frozen until further analysis.

MTT assay, Vero cells = assay type: cell-based; conditions: for CC50 at 24 h: African green monkey
Protocol: For viability analysis 4x10^4 Vero or 8x10^4 SH-SY5Y-tau-P301S cells were plated in a 96-well plate and incubated at 37°C overnight. Then the compounds diluted in DMSO were added to the cells. The final concentration of DMSO was 1%. The cells were then incubated for 24h (Vero) or 48h (SH-SY5Y). Afterward 20 μL of a Thiazolyl Blue Tetrazolium Bromide (MTT, Sigma) solution (5 mg/mL in PBS) was added to the cells and incubated for 4h allowing viable cells to reduce the yellow MTT into blue formazan metabolites. Following aspiration of the medium, the formazan was resuspended in 200 μL isopropanol/40 mM HCl and incubated for 30 min at RT. The diluted formazan was spectrometrically analyzed using a Tecan Safire Spectrometer at 560 nm and background at 670 nm was subtracted.

pox viruses = conditions: cited from earlier work
tau phosphorylation = assay: Tau assay (immunoblot of phospho-tau) in SH-SY5Y-tau-P301S cells; assay type: cell-based, human; conditions: for tau phosphorylation at Ser202 and Thr205 (AT8): absence of virus, ISO-1 up to 100 μM; for effect on tau phosphorylation (AT8) in MIF-knockdown cells: SH-SY5Y-tau-P301S-MIF-knockdown cells; for potency relative to PAV-802 in inhibiting tau phosphorylation: in vitro assay
Protocol: For the analysis of compound effects on tau phosphorylation 4x10^5 SH-SY5Y tau-P301S cells were seeded on 24-well plates. At the next day the cells were treated with compounds diluted in DMSO. Final concentration of DMSO was 0.2%. After an incubation at 37°C for 48h the cells were washed twice with PBS and then lysed in PBS/1% NP40 (Applichem) including the cOmplete protease inhibitor cocktail 2 (Roche) and phosphatase inhibitor cocktail (Sigma). The protein concentration of the samples was determined with the DC Protein Assay (Bio-Rad).
After the protein concentration of cell lysates and homogenates had been determined using the DC Protein Assay Kit (Bio-Rad), 20 μg of each sample were dissolved in NuPAGE LDS Sample buffer (including 2% β-mercaptoethanol), boiled at 100°C for 5 min and then separated on NuPAGE Novex 4–12% Bis-Tris midi gels (Invitrogen) using NuPAGE MES SDS Running buffer (Invitrogen). Proteins were then transferred to a 0.2 μm nitrocellulose membrane (Amersham) in 24 mM Tris/192 mM glycine/20% MeOH at 400 mA for 2h using a tank blot system (Bio-Rad). In order to detect any blotting artifacts, the proteins on the membranes were visualized with Ponceau S (Sigma). The membranes were destained with PBS and then blocked with PBS/5% nonfat milk (Oxoid) for 1h at RT. Incubations with primary antibodies (diluted 1:1,000) in PBS-T were carried out overnight at 4°C. Then the membranes were washed three times with PBS-T for 10 min and afterward incubated with fluorescent secondary antibodies (IR Dye 680 or 800: Li-COR Biosciences.) diluted 1:20,000 in PBS-T for 1h at RT. Following three washing steps with PBS-T for 10 min each, the membranes were scanned using an LI-COR Odyssey CLX. Signal intensities were calculated using the Image Studio Version 2.1 software (LI-COR Biosciences). Blots were reused for staining with additional primary antibodies following the same procedure.

CUTA = target: T2, CUTA (Homo sapiens, UniProt O60888); assay: Drug resin affinity chromatography (DRAC), CUTA; assay type: binding; conditions: SH-SY5Y-tau-P301S lysates
T2 construct: endogenous in cells; host or cells: SH-SY5Y-tau-P301S cell lysate
T2 sequence (O60888 33-179): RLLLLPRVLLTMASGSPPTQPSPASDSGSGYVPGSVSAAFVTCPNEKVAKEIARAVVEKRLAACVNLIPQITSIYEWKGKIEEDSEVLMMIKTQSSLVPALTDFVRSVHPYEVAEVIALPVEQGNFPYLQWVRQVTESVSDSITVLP
Protocol: as §1

HSV-1 = assay: In-cell ELISA for antiviral (HSV-1) activity in Vero cells; assay type: cell-based, HSV-1 KOS strain; conditions: for IC50: Human alphaherpesvirus 1, Vero; for potency relative to PAV-802 in inhibiting HSV-1 replication: in vitro assay
Protocol: Antiviral activity of the compounds was measured by in-cell ELISA that was adapted from Fabiani et al.[90] […] In parallel cells were infected with serial dilutions of HSV-1 to generate a standard curve. […] Following blocking with 5% BSA in PBS/0.05% Tween 20 (Sigma, PBS-T) for 60 min the cells were incubated with 50 μL of anti-HSV-1-gC antibody (abcam) diluted 1 to 10,000 in PBS-T over night at 4°C. The following day, cells were washed four times with PBS-T and then incubated with Hrp-conjugated goat anti-mouse antibody (Thermo Fisher Scientific) at a dilution of 1:10,000 in PBS-T for 60 min. Then, cells were washed four times with PBS-T before adding 50 μL of the substrate cocktail (OptEIA, BD). The reaction was stopped after 30 min by adding 50 μL of 2N H2SO4 and signals were spectrometrically analyzed using a Tecan Safire at 450 nm.

CCc1cc(N2CCCC2)cc2[s+]c3cc(N4CCCC4)cc(C)c3nc12.[I-] [PAV-174, 3,7-Di(pyrrolidine-1-yl) 1-ethyl-9-methyl-phenothiazin-5-ium iodide]
fraction unbound (in vitro): 0.001
elution of MIF from PAV-617 resins by free compound (MIF): eluted
CC50 at 24 h (MTT assay, Vero cells; CC50 (µM)): 1.2 µM
CC50 at 24 h (MTT assay, Vero cells; CC50, MTT assay in Vero): 1.12 µM
CC50 (MTT assay, Vero cells; CC50 (µM)): 1.16 µM
antiviral effects on pox viruses (pox viruses): antiviral effects
tau phosphorylation at Thr181 (AT270) (tau phosphorylation; SH-SY5Y-tau-P301S cells): only at higher concentrations
tau phosphorylation at Thr231 (AT180) (tau phosphorylation; SH-SY5Y-tau-P301S cells): dose-dependent reduction
HSV-1-induced increase of tau phosphorylation (AT8) (tau phosphorylation; SH-SY5Y-tau-P301S cells infected with HSV-1): absent
tau phosphorylation at Ser202 and Thr205 (AT8) (tau phosphorylation; SH-SY5Y-tau-P301S cells): reduced tau phosphorylation
effect on tau phosphorylation (AT8) in MIF-knockdown cells (tau phosphorylation): absent
potency relative to PAV-802 in inhibiting tau phosphorylation (tau phosphorylation): around 2 logs
elution of CUTA from PAV-617 resins by free compound (CUTA): eluted
IC50 (HSV-1): 20 nM
IC50 (HSV-1; read-out: IC50, HSV-1 replication, in-cell ELISA): 21 nM
potency relative to PAV-802 in inhibiting HSV-1 replication (HSV-1): around 2 logs

[I-].c1cc2nc3ccc(N4CCCC4)cc3[s+]c2cc1N1CCCC1 [PAV-617, 3,7-Di(pyrrolidine-1-yl)phenothiazine-5-ium iodide]
fraction unbound (in vitro): 0.088
elution of MIF from PAV-617 resins by free compound (MIF): eluted
CC50 (MTT assay, Vero cells; CC50 (µM)): 20.1 µM
antiviral effects on pox viruses (pox viruses): antiviral effects
tau phosphorylation at Ser202 and Thr205 (AT8) (tau phosphorylation; SH-SY5Y-tau-P301S cells): reduced tau phosphorylati on ly in control
effect on tau phosphorylation (AT8) in MIF-knockdown cells (tau phosphorylation): bu t no t in MIF-knockdown
potency relative to PAV-802 in inhibiting tau phosphorylation (tau phosphorylation): retained that enhanced activity
elution of CUTA from PAV-617 resins by free compound (CUTA): eluted
IC50 (HSV-1): 220 nM
potency relative to PAV-802 in inhibiting HSV-1 replication (HSV-1): retained that enhanced activity

— publication PMC12866179, “Oxidized MIF is an Alzheimer’s disease drug target relaying external risk factors to tau pathology” (Cell Reports Medicine, 2025)
